Assay results: PMC4741889, “Ligand-based chemoinformatic discovery of a novel small molecule inhibitor targeting CDC25 dual specificity phosphatases and displaying in vitro efficacy against melanoma cells” (Oncotarget, 2015)

Target: T1, CDC25B (Homo sapiens, UniProt P30305)
T1 construct: Recombinant forms of the catalytic domains of CDC25A, -B and -C were obtained through the vectors pET28a-CDC25A-cd, pET28a-CDC25B-cd and pET28a-CDC25C-cd; made in house
T1 sequence (P30305 431-538 limits assumed): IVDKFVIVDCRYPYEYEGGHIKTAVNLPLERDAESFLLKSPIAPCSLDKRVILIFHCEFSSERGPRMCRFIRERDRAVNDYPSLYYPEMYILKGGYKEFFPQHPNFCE
Assay: Residual phosphatase activity of recombinant CDC25B, fluorimetric OMFP assay
Assay type: biochemical
Conditions: for remaining activity at 0.2 µM: 0.2 μM inhibitor; for remaining activity at 0.2 µM / remaining activity at 1 µM: 10 nM CDC25B, 25 μM OMFP, read-out: CDC25B residual activity (%) in the presence of [inhibitor]; for remaining activity at 1 µM: 1 μM inhibitor; for inhibition of the CDC25B phosphatase activity (in words): two inhibitor concentrations, 0.2 and 1 μM
Experimental: Among the twenty-five structures identified from the multiple ligand-based chemoinformatic approach, eight compounds (2, 10, 12–14, and 16–18) were excluded from the analysis, because endowed with a strong fluorescent signal, which interfered with the emission wavelength of the synthetic substrate 3-O-methylfluorescein phosphate (OMFP) used in the fluorimetric assay. The inhibition of the phosphatase activity of CDC25B by the remaining seventeen analogs was evaluated in the presence of two different concentrations of these compounds (Table 2). […] For this reason, only one of these latter compounds, i.e. 3, was included in the following analysis.
The enzymatic activity of the catalytic domains of CDC25A, -B and -C were determined through a fluorimetric method, which monitored the dephosphorylation of the synthetic substrate OMFP, essentially as previously described. In steady-state enzyme kinetic studies, the residual phosphatase activity of purified recombinant CDC25B was measured at 30°C in the presence of different concentrations of the various inhibitors, using a computer-assisted Cary Eclipse spectrofluorimeter (Varian) equipped with an electronic temperature controller. Excitation and emission wavelengths were set at 485 and 530 nm, respectively; both excitation and emission slits were set at 10 nm. The reaction mixture contained 10 nM CDC25B and different concentrations of the various inhibitors in 500 μL final volume of 20 mM Tris-HCl, pH 7.8, 1 mM DTT. DMSO was used as vehicle control. The reaction started by the addition of 25 μM OMFP, and the formation of the fluorescent product o-methylfluorescein was monitored continuously. The rate of OMFP hydrolysis was expressed as arbitrary units per min (a.u./min). The comparison of the rates determined in the absence and in the presence of the various inhibitors allowed the calculation of the residual phosphatase activity, expressed as a percentage.

Structure (SMILES) | remaining activity at 0.2 µM | remaining activity at 1 µM | inhibition of the CDC25B phosphatase activity (in words)
O=C(O)CCc1c2ccc(=O)cc-2oc2cc(O)ccc12 [Compound 4] | 90% | 28% | measurable inhibition of the phosphatase activity, only when added at the highest concentration
Cc1c2ccc(=O)cc-2oc2cc(O)ccc12 [Compound 1] | 76% | 9% | measurable inhibition of the phosphatase activity, only when added at the highest concentration
O=C(O)c1ccccc1-c1c2cc([N+](=O)[O-])c(=O)c(Br)c-2oc2c(Br)c(O)c([N+](=O)[O-])cc12 [Compound 19] | 86% | 70% | measurable inhibition of the phosphatase activity, only when added at the highest concentration
O=c1ccc2c(-c3ccccc3S(=O)(=O)O)c3ccc(O)c(O)c3oc-2c1O [Compound 20] | 91% | 24% | measurable inhibition of the phosphatase activity, only when added at the highest concentration
O=C(O)c1ccccc1-c1c2cc(I)c(=O)c(I)c-2oc2c(I)c(O)c(I)cc12 [Compound 15] | 79% | 18% | measurable inhibition of the phosphatase activity, only when added at the highest concentration
CN(C)c1ccc(-c2c3cc(O)c(=O)cc-3oc3cc(O)c(O)cc23)cc1 [Compound 22] | 80% | 0% | measurable inhibition of the phosphatase activity, only when added at the highest concentration
